Assays:
[1] = test system: HOS cells; assay: Attachment of HOS cells to Ti disks coated with rhOPN; type: cell-based, human; details: Ti disks coated with 50 μg of rhOPN; after 30 min; vs uncoated
Method: HOS cells were labeled overnight with 10 uCi ^3H-thymidine, then dissociated from the plate with non-enzymatic dissociation solution (Sigma), washed 2 times with PBS, and counted. ^3H-thymidine incorporated into TCA insoluble material was determined for the cells. 5000 cells (cpm total 1000) were plated onto coated or uncoated titanium disks and the disks incubated at 37° C. for 30 min. Unadhered cells were removed, and attached cells were washed 3 times with 0.5 ml PBS. The cells were lysed with ice cold 20% TCA and the radioactivity in the TCA insoluble fraction was determined using the Scintillation counter (Begman 5000).
5000 cells (total cpm 1000) were plated on either coated or uncoated Ti disks and incubated at 37° C. in a humidified atmosphere (95% air 5% CO2). After 30 min, unattached cells were removed and the disks were washed with PBS. The total number of attached cells was determined for the total cpm released for the disks after the cells were lysed with 10% TCA and solubilized in 5 ml scintillation fluid. All measurements were done in triplicates and graphed as mean±Standard error of the mean.
The initial events following seeding of cells onto Ti surfaces include the attachment, migration and proliferation of the seeded cells. Coating Ti disks with 50 μg of rhOPN enhanced by 1100% the attachment of HOS cells to Ti disks (FIG. 2), after 30 min.

[2] = test system: HOS cells; assay: Proliferation of HOS cells on Ti disks coated with rhOPN (3H-thymidine incorporation); type: cell-based, human
Method: Cell proliferation was determined by the rate of ^3H-Thymidine incorporation into DNA. Cells were labeled with 10 μCi/ml of ^3H-Thymidine in DME media. After 6 hours, the cells were lysed in cold 10% trichloroacetic acid (TCA). The TCA insoluble material was collected and washed several times with 10% TCA, then resuspended in 0.5 N NaOH. ^3H-thymidine incorporation into TCA insoluble material was used as an index of cell proliferation. The material collected was mixed with scintillation liquid (Begman). The amount of radiation generated was compared between cells grown in titanium disks uncoated, and titanium disks coated with OPN.
Cell proliferation was determined by the rate of ^3H-Thymidine incorporation into DNA. Cells labeled with ^3H-Thymidine were seeded for 6 hours, then lysed with TCA. The TCA insoluble material was collected and resuspended in 0.5 N NaOH. ^3H-thymidine incorporation into TCA insoluble material was used as an index for cell proliferation. Rate of proliferation is expressed as cpm/1000 cells/6 h. Control group: 254,54, rhOPN group: 560,83. All measurements were done in triplicates and reported as mean±Standard error for the mean.
Since rhOPN promoted cell attachment to Ti disks, it was of interest to examine whether the protein had any effect on the proliferation of HOS grown on Ti disks.

[3] = test system: HOS cells; assay: Western blot of osteopontin and BSP secreted into extracellular matrix by HOS cells on coated Ti disks; type: cell-based, human
Method: Osteopontin and BSP were extracted from the extracellular matrix of HOS cells cultured on Ti disks or Ti disks coated with the recombinant Opn with lysis buffer (20 mM phosphate buffer, pH, 7.2, containing 150 mM NaCI, 0.1% SDS, 1 mM phenylmethylsulfonyl fluoride, 5 mM benzamidine, 0.1 mM e-amino caproic acid, 0.1 b-hydroxy mercuribenzoate, 0.1 mM pyrophosphate, 1 mM sodium fluoride, 1 mM sodium orthovanadate and 10 mM EDTA). Samples were then processed for Gel electrophoresis.
Western blot analysis: Cell layer proteins and conditioned media was electrophoresed in 10% SDS-polyacrylamide slab gels at 150 volts for 4 h. For Western blot analysis resolved proteins in gels were transferred by semi-dry blotting onto nitrocellulose membranes (Schleicher & Schuell, Keene, N H), gel transfers were carried out for 90 min. at 12 V in 0.025 M Tris-glycine buffer, pH 8.2, containing 20% methanol and 0.01% Tween 20 and 10% nonfat dry milk, then incubated with rabbit anti-mouse osteopontin (Ashkar S, et al., New York Academy of Science 760:296-298, 1995) in 20 mM Phosphate buffer, pH 7.4, containing 150 mM NaCL, 0.1% Tween 20 and 1% nonfat dry milk. […] Nonspecific interaction was assessed by the interaction of the primary and secondary antibodies with rabbit serum albumin. […]

[4] = test system: HOS cells; assay: Attachment of HOS cells to plastic, glass or chromocobalt surfaces coated with OPN; type: cell-based, human; details: 1 hour
Method: 500 cells were plated on coated plastic, glass or chromocobalt surfaces and incubated at 37° C. in a humidified atmosphere (95% air 5% CO2). Surfaces were coated with either human recombinant phosphorylated OPN (rhOPN) or unphosphorylated OPN. Fibronectin coated surfaces were used as a control. After 1 hour, unattached cells were removed and the surfaces were washed with PBS. The total number of attached cells was determined for the total cpm released for the surfaces after the cells were lysed with 10% TCA and solubilized in 5 ml scintillation fluid. All measurements were done in triplicates.

[5] = test system: Haundel/Labrador dogs; assay: In vivo histology of bone healing around rhOPN coated Ti implants in dogs; set-up: species or system dog; details: hollow screw Ti implants, dogs sacrificed after 4 and 8 weeks; vs uncoated
From the text: Forty implants (5 per quadrant) were placed in four Haundel/Labrador dogs after extraction of four premolars (PM1-PM4) and one molar (M1), and a three month healing period. Eight hollow screw Ti implants were coated with rhOPN. Eight uncoated implants served as controls. The remaining implants were coated with 3 additional different molecules denoted as study 2, study 3, and study 4.
Prior to implant placement, core samples from the donor place were taken to histologically analyze bone quality after extractions. This procedure, also ensured a hollow space for bone ingrowth inside the coated and uncoated implants. Dogs were sacrificed after 4 and 8 weeks.
Implants were recovered for histological analysis. Each implant was sectioned vertically. The core inside the hallow implant was removed using liquid nitrogen. Decalcified sections were embedded in paraffin and stained using Herovichi's techniques to differentiate immature from mature collagen. Light microscopy at 4× and 40× magnifications were used to compare histological differences between rhOPN coated implants and uncoated implants.
Uncoated implants show normal bone healing characterized by granulation tissue and a few areas of vascularization and matrix deposition after four weeks.

Question: How did the “enhancement of attachment of HOS cells to Ti disks” value [1] turn out when “rhOPN: human recombinant phosphorylated form of osteopontin” was run?
Answer: Its value is 1100%.

Question: And the Rate of proliferation [2]?
Answer: The Rate of proliferation was 560,83 cpm/1000 cells/6 h.

Question: What about the “proliferation rate relative to cells grown on uncoated Ti disks” value [2] of the same substance?
Answer: The value was “approximately twice”.

Question: What about the “OPN secretion into the extracellular matrix (Western blot)” value ([3]; HOS cells on coated Ti disks vs uncoated titanium controls) of the same substance?
Answer: Its value is “increased secretion of OPN”.

Question: What about the “BSP extracellular matrix secretion (Western blot)” value ([3]; HOS cells on rhOPN coated implants, control groups did not express BSP) of the same substance?
Answer: Its value is “less marked than the production of osteopontin”.

Question: What about the “% total attached” value ([4]; Plastic surface) of the same substance?
Answer: Its value is 90.8%.

Question: And the “% total attached” value ([4]; chromocobalt (CrCo) surface)?
Answer: Its value is 69.2%.

Question: What about the “% total attached” value ([4]; glass surface) of the same substance?
Answer: Its value is 98.1%.

Question: And the “bone healing around implants (histology)” value [5]?
Answer: The value was “enhanced bone healing”.

Reference: patent publication US20060105013A1, “Osteopontin-coated surfaces and methods of use” (priority 2000, published 2006)
